Broadly, the Kd is a measure of binding affinity in units of concentration. Low values mean tighter binding, high ones weaker binding.

This experiment has as its target T1, breast cancer resistance protein (BCRP) (Homo sapiens, UniProt Q9UNQ0).
T1 sequence (Q9UNQ0 1-655): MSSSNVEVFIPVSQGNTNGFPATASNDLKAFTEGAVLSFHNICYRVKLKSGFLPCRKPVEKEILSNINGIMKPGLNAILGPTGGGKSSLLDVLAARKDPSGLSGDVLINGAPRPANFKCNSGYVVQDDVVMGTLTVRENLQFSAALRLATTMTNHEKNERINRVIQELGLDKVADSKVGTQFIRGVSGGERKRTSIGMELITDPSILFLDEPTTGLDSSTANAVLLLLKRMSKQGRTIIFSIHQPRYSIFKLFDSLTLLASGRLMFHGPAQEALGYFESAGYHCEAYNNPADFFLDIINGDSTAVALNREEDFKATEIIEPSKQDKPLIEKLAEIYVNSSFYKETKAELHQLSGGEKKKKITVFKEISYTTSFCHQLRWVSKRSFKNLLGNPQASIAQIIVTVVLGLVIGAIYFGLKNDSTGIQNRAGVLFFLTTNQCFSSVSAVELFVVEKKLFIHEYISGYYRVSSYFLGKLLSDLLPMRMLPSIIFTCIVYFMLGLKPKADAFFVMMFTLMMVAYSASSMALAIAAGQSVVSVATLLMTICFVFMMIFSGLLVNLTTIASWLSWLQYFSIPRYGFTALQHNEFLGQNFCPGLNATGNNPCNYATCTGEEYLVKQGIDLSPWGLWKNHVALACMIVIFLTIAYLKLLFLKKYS
The experiment can be described thus: frontal displacement affinity chromatography. Format: binding. The note with it: nmac-bcrp column.
Turning to `COc1cc([C@@H]2c3cc4c(cc3[C@@H](O[C@@H]3O[C@@H]5CO[C@@H](C)O[C@H]5[C@H](O)[C@H]3O)[C@H]3COC(=O)[C@H]23)OCO4)cc(OC)c1O` [Etoposide], the Kd worked out at 4550 nM.
Turning to `COc1ccc2c3c([nH]c2c1)[C@H](C=C(C)C)N1C(=O)[C@@H]2CCCN2C(=O)[C@@H]1C3` [FTC, Fumitremorgin C], the Kd was 1630 nM.
Turning to `COc1ccc(-c2coc3cc(O)cc(O)c3c2=O)cc1` [Biochanin A], the Kd was 1050 nM.

The record behind these values is publication PMC3499775 (Journal of pharmaceutical and biomedical analysis, 2012).
